Assay results published in paper PMC8284004, “Electrospun wound dressings containing bioactive natural products: physico-chemical characterization and biological assessment” (Biomaterials Research, 2021).
Where two headings read alike, the source gives them in different places. Marks after values point to notes of the source that are not given here.

Assays:
[1] = SAR study of A/S derivatives on Hs27 metabolic activity (MTT); conditions: human
Experimental: (§1) In this regard, each compound was first dissolved in DMSO and further diluted with DMEM up to the desired concentrations (< 0.1% v/v DMSO to avoid toxicity). […] After the respective incubation times, the metabolic activity was evaluated by MTT assay as described in the previous section. Untreated cells served as controls.

Hs27 fibroblasts = assay: as above; conditions: for Effect on Hs27 cell viability: 24 h, MTT, vs untreated cells
Experimental: as §1

S. epidermidis LMG 10474 = assay: Kirby-Bauer disc diffusion; format: cell-based, Staphylococcus epidermidis; conditions: for Inhibition zone: 53 μM/disc (30 μg/disc for dimeric A/S, 15 μg/disc for shikonin and alkannin); for zone of inhibition at 30 µg/disc: Staphylococcus epidermidis
Experimental: (§2) The antibacterial activity of neat and A/S mixture-loaded fibrous scaffolds was evaluated against the Gram-positive strains, Staphylococcus epidermidis LMG 10474 and S. aureus LMG 8224, implementing the Kirby-Bauer disc diffusion method. The bacteria were cultured onto nutrient agar plates (24 h at 37 °C) and then a dense bacterial suspension was made by transferring a small portion of staphylococci (10 μL) with an inoculating loop to 1 mL of sterile PBS. Next, 100 μL of this suspension were spread to Mueller-Hinton (MH) agar plates for conducting the test. UV-sterilized nanofibers with an average diameter of 8 mm were placed on the surface of inoculated MH plates. The plates were incubated for a period of 24 h at 37 °C. […] After 24 h, the antibacterial activity was evaluated by measuring the inhibition zone of the bacteria in millimeters.

S. aureus LMG 8224 = assay: Kirby-Bauer disc diffusion; format: cell-based, Staphylococcus aureus; conditions: for Inhibition zone: 53 μM/disc (30 μg/disc for dimeric A/S, 15 μg/disc for shikonin and alkannin); for zone of inhibition at 30 µg/disc: Staphylococcus aureus
Experimental: as §2

human skin fibroblasts = tested on: human skin fibroblasts; design: method as in PMID 25234005; conditions: non-selective toxicity towards normal cell lines ref 42; cited from earlier work
[2] = tested on: granuloma tissue in Wistar rats; design: method as in PMID 9586574; conditions: dose-dependent ref 41; cited from earlier work
[3] = n-octanol/water (1:1, v/v) ref Ordoudi et al. [24]; cited from earlier work
[4] = tested on: human gingival fibroblasts; design: method as in PMID 31574951; conditions: at 1 μΜ ref 39; cited from earlier work
S. aureus = tested on: S. aureus; design: method as in PMID 760130, PMID 5066306; conditions: cited from earlier work
S. epidermidis = tested on: S. epidermidis; design: method as in PMID 760130, PMID 5066306; conditions: cited from earlier work
keratinocytes = tested on: keratinocytes; design: method as in PMID 27725239; conditions: at 1.5 and 3 μΜ ref 40; cited from earlier work
[5] = LMG10474, 30 μg/disc on 8 mm filter paper, 24 h, read-out: Zone of inhibition
[6] = LMG8224, 30 μg/disc on 8 mm filter paper, 24 h, read-out: Zone of inhibition

CC(C)=CC[C@H](O)C1=CC(=O)c2c(O)ccc(O)c2C1=O [Alkannin, alkannin]
viability at 3 days, 0.5 µM [1]: > 110% | Effect on Hs27 cell viability (Hs27 fibroblasts; 1 μM): significant decrease in cell number | Zone of inhibition (S. epidermidis LMG 10474; 30 μg/disc on 8 mm filter paper, 24 h): 15.16 ± 0.66 mm | Inhibition zone (S. epidermidis LMG 10474): 10.69 ± 1.01 mm | zone of inhibition at 30 µg/disc (S. epidermidis LMG 10474; LMG10474, 24 h): 15.2 mm | Inhibition zone (S. aureus LMG 8224): 10.74 ± 0.74 mm | zone of inhibition at 30 µg/disc (S. aureus LMG 8224; LMG8224, 24 h): 12.7 ± 0.58 mm | IC50 (human skin fibroblasts): 1.5 ± 0.1 µM | Proliferation of granuloma tissue [2]: succeeded in accelerating (dose-dependently) the proliferation of granuloma tissue | Log P [3]: −0.27 ^c

CC(C)=CCC(OC(=O)CC(C)C)C1=CC(=O)c2c(O)ccc(O)c2C1=O (stereo not shown) [Isovaleryl-shikonin, isovaleryl-shikonin]
Proliferation rate ranking (Hs27 fibroblasts; day 3, isovaleryl-shikonin at 500 nM and 1 μM, dimeric A/S at 1 μM): highest proliferation rates | zone of inhibition at 30 µg/disc (S. epidermidis LMG 10474; [5]): 11.1 ± 0.94 mm | zone of inhibition at 30 µg/disc (S. aureus LMG 8224; [6]): 9.13 ± 0.51 mm

CC(C)=CC[C@@H](O)C1=CC(=O)c2c(O)ccc(O)c2C1=O [Shikonin, shikonin]
Effect on Hs27 cell viability (Hs27 fibroblasts; 500 nM): significant decrease in cell number | Effect on Hs27 cell viability (Hs27 fibroblasts; 1 μM): significant decrease in cell number | Inhibition zone (S. epidermidis LMG 10474): 10.77 ± 1.07 mm | zone of inhibition at 30 µg/disc (S. epidermidis LMG 10474; LMG10474, 24 h): 14.8 ± 2.12 mm | Inhibition zone (S. aureus LMG 8224): 11.08 ± 0.26 mm | zone of inhibition at 30 µg/disc (S. aureus LMG 8224; LMG8224, 24 h): 12.3 ± 0.64 mm | IC50 (human skin fibroblasts): 1.2 ± 0.1 µM | In vitro migration [4]: enhanced the in vitro migration | Proliferation of granuloma tissue [2]: succeeded in accelerating (dose-dependently) the proliferation of granuloma tissue | Growth inhibition (S. aureus): inhibited the growth | Log P [3]: −0.27 ^c

CC(C)=CCC(OC(=O)C=C(C)C)C1=CC(=O)c2c(O)ccc(O)c2C1=O (stereo not drawn) [β,β-Dimethyl-acryl-shikonin, β,β-dimethyl-acryl-shikonin]
zone of inhibition at 30 µg/disc (S. epidermidis LMG 10474; [5]): 10.6 ± 0.57 mm | zone of inhibition at 30 µg/disc (S. aureus LMG 8224; [6]): 8.98 ± 0.17 mm | Growth inhibition (S. aureus): effective | Growth inhibition (S. epidermidis): effective | Log P [3]: 1.38 ^c

CC(C)=CCCC1=CC(=O)c2c(O)ccc(O)c2C1=O [Deoxy-shikonin, deoxy-shikonin]
zone of inhibition at 30 µg/disc (S. epidermidis LMG 10474; LMG10474, 24 h): 13.2 ± 0.22 mm | zone of inhibition at 30 µg/disc (S. aureus LMG 8224; LMG8224, 24 h): 12.4 ± 0.23 mm | In vitro migration (keratinocytes): enhanced the in vitro migration | Log P [3]: 1.08^c

CC(=O)O[C@H](CC=C(C)C)C1=CC(=O)c2c(O)ccc(O)c2C1=O [Acetyl-shikonin, acetyl-shikonin]
zone of inhibition at 30 µg/disc (S. epidermidis LMG 10474; LMG10474, 24 h): 14.1 ± 1.25 mm | zone of inhibition at 30 µg/disc (S. aureus LMG 8224; LMG8224, 24 h): 11.9 ± 1.43 mm | Growth inhibition (S. aureus): inhibited the growth | Log P [3]: 0.66 ^c
